Measured values from patent US20110008279A1, “Methods and Compositions Relating to Adhesins as Adjuvants” (priority 2005, published 2011).

System: human macrophages
Test: NadA binding to human macrophages
Conditions: 37° C.
Method: The graphs plot the mean fluorescence intensities (MFI) ±SD measured in human macrophages that have been incubated with NadAΔ351-405-Alexa, at different concentrations (A), or with 100 nM NadAΔ351-405-Alexa in presence of increasing concentrations of unlabelled protein (B), for 3 hours at 37° C. or 0° C. The reported data are the average of three independent experiments repeated in triplicate.
NadA binding to monocyte-derived macrophages was also investigated. A dose-dependent association of NadA to macrophages was confirmed by MFI analysis and competition by non-labelled ligand was used to ascertain whether NadA binding was specific.

Substance: NadAΔ351-405
- decrease of the signal associated to macrophages by non-labelled ligand: −50%
